# EP4810497A1, “ISOQUINOLINE DERIVATIVE, SYNTHESIS METHOD THEREFOR, AND USE THEREOF” (Harbin Gloria Pharmaceuticals Co., Ltd., priority 2023, dated 2025)
# Where two headings read alike, the source gives them in different places.
# Legend:
# Pgk1 [1] = target: T1, Pgk1 (Homo sapiens, UniProt P00558); assay: Affinity for Pgk1 protein (Biacore T200 chip); assay type: binding; settings: for Rmax: amount of drug bound to the target protein when the affinity was detected
# T1 sequence (P00558 1-417): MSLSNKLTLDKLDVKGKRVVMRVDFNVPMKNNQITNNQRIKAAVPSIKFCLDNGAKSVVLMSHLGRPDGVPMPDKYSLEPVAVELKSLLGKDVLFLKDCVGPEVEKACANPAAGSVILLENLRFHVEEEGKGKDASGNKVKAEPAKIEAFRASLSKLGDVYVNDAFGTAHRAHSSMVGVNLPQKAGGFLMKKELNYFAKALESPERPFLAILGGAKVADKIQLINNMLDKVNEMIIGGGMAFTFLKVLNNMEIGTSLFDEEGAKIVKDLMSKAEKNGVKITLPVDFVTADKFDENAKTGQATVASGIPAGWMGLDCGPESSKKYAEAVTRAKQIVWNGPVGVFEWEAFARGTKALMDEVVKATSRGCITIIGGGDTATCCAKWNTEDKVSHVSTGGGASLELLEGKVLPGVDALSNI
# Procedure: Purified Pgk1 protein (with a concentration of 1 mg/mL) was immobilized on a Biacore T200 chip. […] The obtained curves can calculate parameters such as affinity and Rmax.
# [2] = test system: MPTP-induced Parkinson's disease model mice; assay: Rotarod motor ability in MPTP-induced Parkinson's disease model; assay type: in vivo; settings: day 7 after MPTP injection
# Procedure: (§1) Male mice aged 3 months were used and fed normally. The acute MPTP modeling method (see Sonsalla PK, Heikkila RE. The influence of dose and dosing interval on MPTP-induced dopaminergic neurotoxicity in mice. Eur J Pharmacol 1986; 129(3): 339-45.) was employed. MPTP was injected intraperitoneally four times in total at a dose of 20 mg/kg body weight per injection, with a 2-hour interval between each injection. MPTP was dissolved in normal saline, and the control group received an equal dose of normal saline. T2 was dissolved in DMSO and diluted with normal saline to the desired concentration. Accordingly, equal doses of DMSO and normal saline were administered during the treatment. On the day of MPTP model establishment, mice were administered either T2 (treatment group) or DMSO (control group). Subsequently, mice in all groups were administered the corresponding drugs daily. Mouse behavior was tested using a rotarod (E103, UGO BASILE). First, mice were pre-trained for two consecutive days at a constant speed of 15 revolutions per minute (15 rpm) until they could stay on the rod for more than 60 seconds. […] The latency to fall from the rotarod was recorded, and the behavior was monitored by a camera. […] Therefore, whether dopaminergic neurons were damaged can be determined by Western blot assay using an anti-TH antibody.
# [3] = test system: Tyrosine hydroxylase (TH); assay: Striatal tyrosine hydroxylase Western blot in MPTP-induced Parkinson's disease model; assay type: in vivo, mice; settings: 0.1 mg/Kg, striatal tissue
# Procedure: as §1
# SK-N-SH cells = assay: Cellular ATP levels (Promega ATP assay kit); assay type: cell-based, human; settings: for cell growth: 50 µM; for optimal dose (cellular ATP levels): doses of 5 µM, 10 µM and 50 µM; for optimal dose (cellular ATP levels) / activity in increasing cellular ATP: 48 hours; for activity in increasing cellular ATP: SK-N-SH cells, 10 µM, 5% O2, untreated control defined as 1 (FIG. 1)
# Procedure: Human Neuroblastoma Cell Line (SK-N-SH) is a human-derived neuroblastoma cell line. SK-N-SH cells were seeded in a 6-well plate at a density of 6×10^4 cells per well. The cells were cultured for 12 hours under 5% O2. Various drugs at a concentration of 10 µM were added. After 48 hours, the cells were harvested. Celluar ATP levels were measured using the Promega ATP assay kit. The experiment was repeated 6 times to 10 times. The experimental results were illustrated in FIG. 1. […] T1 to T11 were the experimental groups.
# SK-N-SH cells were seeded in a 6-well plate at a density of 6×10^4 per well. Cells were cultured for 12 hours under 5% O2, and the drug was added. Cells were harvested after 48 hours. Cellular ATP levels were measured using a Promega ATP assay kit. The experiment was repeated 5 times to 7 times.
# [4] = test system: stable Pgk1-knockdown SK-N-SH cell line; assay: Mitochondrial respiration (Seahorse) in Pgk1-knockdown cells; assay type: cell-based, human; settings: 10 µM, shPgk1 knockdown cells
# Procedure: Cellular mitochondrial stress was detected using a Seahorse XFe analyzer (XFe-24, Seahorse Bioscience, Billerica, MA, UAS) to measure the oxygen consumption rate (OCR). SH-SKN cell lines were seeded in a 24-well plate compatible with the Seahorse XFe analyzer. After 24 hours, cells were treated with DMSO (0.01%) or various drugs (10 µM). Cellular mitochondrial stress was detected 12 hours after drug treatment. For the mitochondrial stress test, 97.2 mL of Seahorse basal medium (Seahorse Bioscience, Billerica, MA, UAS) was taken and heated in a water bath to 37°C, and 1 mL of a stock solution was added. The stock solution was prepared by mixing the following solutions: 1 mL of 200 mM L-glutamine solution (Sigma), 1 mL of 100 mM pyruvate solution (Sigma), and 800 µL of 2.5 M glucose solution, and the pH of the stock solution was adjusted to 7.4 with 1 M NaOH solution. Before detection, the probe plate was taken out, and 1 mL of XF Carlibrant solution (Seahorse Bioscience) was added to the probe plate. The plate was then incubated overnight in a CO2-free constant temperature incubator at 37°C. After drug treatment, the cells were removed and washed twice with preheated Seahorse basal medium at 37°C, ensuring that 500 µL of Seahorse basal medium remained in each well. The cells were incubated in a CO2-free constant temperature incubator at 37°C for 1 hour. […]
# db/db mice [5] = assay: Hypoglycemic effect in diabetic model mice, intraperitoneal injection; assay type: in vivo; settings: 4 hours later
# Procedure: Gene knockout db/db mice are a classic model of hyperglycemia and obesity. Under normal feeding conditions, mice aged 3 months or older developed hyperglycemia and obesity. After the mice were provided with only drinking water (fasted) for 6 hours, blood was collected from the tail of the mice to measure blood glucose values. Subsequently, different drugs, including saline (control), liraglutide at 0.6 mg/Kg, low-concentration T6 (T6 low, 0.1 mg/Kg), and high-concentration T6 (T6 high, 0.5 mg/Kg), were injected intraperitoneally. 4 hours later, blood was collected from the tail of the mice to measure the blood glucose levels. Each group consisted of 6 mice. Blood glucose levels before administration (Vbefore) and after administration (Vafter) were obtained for each mouse. The effect of the drug on blood glucose (%) was calculated as follows: (Vbefore−Vafter) × 100/Vbefore . [formula]
# db/db mice [6] = assay: Long-term hypoglycemic and weight-loss effects in diabetic model mice, drinking water; assay type: in vivo; settings: 7 days, T6 1.5 mg/kg
# Procedure: After 7 days of treatment, changes in glycated hemoglobin (HbA1c) level, insulin level in mouse blood, and body weight, were measured.
# Pgk1 [7] = target: T1, Pgk1; assay: In vitro biochemical Pgk1 enzymatic activity (NADH production, absorbance 339 nm); parameters: made in house; host or cells: E. coli BL21(DE3); settings: for optimal concentration for activating Pgk1: purified Pgk1-His 2 µg/mL, 10 minutes at room temperature
# Procedure: Human Pgk1 cDNA was cloned into the pEASYTM-E2 vector (TransGen Biotech) containing a His tag. Protein expression was induced in BL21(DE3) chemocompetent cells (TransGen Biotech) with 0.5 mM IPTG. After lysing cells in extraction buffer (20 mM sodium phosphate, 500 mM NaCl, 5 mM imidazole, 5% glycerol, protease inhibitor cocktail, pH 7.9), the supernatant was purified with nickel beads (AdarBiotech). The His-tagged Pgk1 was eluted with the elution buffer (20 mM sodium phosphate, 500 mM NaCl, 80 mM imidazole, protease inhibitor cocktail, pH 7.9). The activity of Pgk1 can be measured by monitoring the rate of NADH production, as NADH accumulated as the reaction proceeded. Purified Pgkl-His protein (2 µg/mL) was added to the reaction buffer (20 mM Tris, 100 mM NaCl, 2 mM DTT, 0.1 mM MgSO4, 10 mM NaHPO4, pH 8.6), and the substrates (1.6 mM GAP, 1 mM β-NAD, 1 mM ADP, 20 ng/µL GAPDH) was added. […] After reaction for 10 minutes at room temperature, the absorbance wavelength at 339 nm was measured using a microplate reader (Molecular Devices, SpectraMax i3x), and this wavelength corresponds to NADH levels.
# Pgk1 [8] = target: T1, Pgk1; settings: cited from earlier work
# α1 adrenergic receptor = settings: cited from earlier work
# Wild-type mice (C57BL/6) = assay: Blood glucose in normal mice in vivo; settings: 0.1 mg/kg intraperitoneally, fasted 6 hours after administration
# Procedure: Wild-type mice (C57BL/6) aged 3 months to 4 months under normal feeding conditions were intraperitoneally injected with different drugs at 0.1 mg/kg. Mice injected with normal saline served as the control group. Mice were fasted for 6 hours after administration. Blood was collected from the tail of each mouse to measure blood glucose levels. Each group consisted of 9 mice.
# [9] = Pgk1 immobilized on Biacore T200 chip, read-out: Affinity
compound,measurement,setting,value
"Nc1ncnc2c1ncn2[C@@H]1O[C@H](COP(=O)(O)OP(=O)(O)O)[C@@H](O)[C@H]1O [ADP, reference compound]",Rmax,Pgk1 [1],35 RU
same,Kd,"Pgk1 [1]; unit inferred, read-out: KD value",337 µM
Nc1nc(N2CCN(C(=O)[C@H]3CCCO3)CC2)cc2cc3c(cc12)OCO3 [Compound T1],Kd,Pgk1 [1]; [9],496 µM
Nc1nc(N2CCN(C(=O)[C@@H]3CCCO3)CC2)cc2cc3c(cc12)OCO3 [Compound T2],Kd,Pgk1 [1]; [9],449 µM
same,motor ability (rotarod),"[2]; three doses 0.1 mg/Kg, 0.3 mg/Kg and 1 mg/Kg daily",exerted protective effects
same,tyrosine hydroxylase protein levels / effect on dopaminergic neurons,[3],protective effect on dopaminergic neurons
CC1Oc2cc3cc(N4CCN(C(=O)[C@H]5CCCO5)CC4)nc(N)c3cc2O1 (some centres unmarked) [Compound T3],Kd,Pgk1 [1]; [9],684 µM
same,Rmax,Pgk1 [1],93 RU
CC1(C)Oc2cc3cc(N4CCN(C(=O)[C@H]5CCCO5)CC4)nc(N)c3cc2O1 [Compound T4],Kd,Pgk1 [1]; [9],725 µM
same,Rmax,Pgk1 [1],75 RU
Nc1nc(N2CCN(C(=O)[C@H]3CCCO3)CC2)cc2cc3c(cc12)CCO3 [Compound T5],Kd,Pgk1 [1]; [9],273 µM
same,Rmax,Pgk1 [1],86 RU
Nc1nc(N2CCN(C(=O)[C@H]3CCCO3)CC2)cc2cc3c(cc12)OCC3 [Compound T6],cell growth,SK-N-SH cells,tendency to inhibit cell growth
same,optimal dose (cellular ATP levels),SK-N-SH cells,50 µM
same,Kd,Pgk1 [1]; [9],375 µM
same,basal respiratory rate,[4],absent
same,maximum respiratory rate,[4],absent
same,hypoglycemic effect (blood glucose),db/db mice [5]; high concentration 0.5 mg/kg intraperitoneally,significant hypoglycemic effects
same,hypoglycemic effect (blood glucose),db/db mice [5]; low concentration 0.1 mg/kg intraperitoneally,significant hypoglycemic effects
same,body weight,db/db mice [6],significant decrease in body weight
same,glycated hemoglobin (HbA1c) level,"db/db mice [6]; terazosin 0.3 mg/kg, metformin 350 mg/kg, versus control group",decrease
same,inhibition of Pgk1 enzymatic activity,Pgk1 [7]; all different concentrations tested,none of the concentrations can inhibit Pgk1
same,optimal concentration for activating Pgk1,Pgk1 [7],0.1 µM
Nc1nc(N2CCN(C(=O)C3CCCC3)CC2)cc2cc3c(cc12)OCO3 [Compound T7],Kd,Pgk1 [1]; [9],878 µM
Nc1nc(N2CCN(C(=O)[C@H]3CCCN3)CC2)cc2cc3c(cc12)OCO3 [Compound T8],Kd,Pgk1 [1]; [9],473 µM
same,Rmax,Pgk1 [1],87 RU
Nc1nc(N2CCN(C(=O)[C@@H]3CCCN3)CC2)cc2cc3c(cc12)OCO3 [Compound T9],Kd,Pgk1 [1]; [9],811 µM
same,Rmax,Pgk1 [1],87 RU
Nc1nc(N2CCN(C(=O)[C@H]3CCCO3)CC2)cc2cc3c(cc12)OCCO3 [Compound T10],activity in increasing cellular ATP,SK-N-SH cells,no such activity of increasing cellular ATP
same,Kd,Pgk1 [1]; [9],> 1000 µM
same,Rmax,Pgk1 [1],None
Nc1nc(N2CCN(C(=O)c3ccco3)CC2)cc2cc3c(cc12)OCO3 [Compound T11],activity in increasing cellular ATP,SK-N-SH cells,no such activity of increasing cellular ATP
same,Kd,Pgk1 [1]; [9],> 1000 µM
same,Rmax,Pgk1 [1],None
COc1cc2cc(N3CCN(C(=O)C4CCCO4)CC3)nc(N)c2cc1OC (centres unmarked) [TZ-md],effect of activating Pgk1,Pgk1 [8],still retains the effect of activating Pgk1
same,inhibition of the α1 adrenergic receptor,α1 adrenergic receptor,does not inhibit the α1 adrenergic receptor
"COc1cc2nc(N3CCN(C(=O)C4CCCO4)CC3)nc(N)c2cc1OC (centres unmarked) [Terazosin, terazosin, reference compound]",cell growth,SK-N-SH cells,tendency to inhibit cell growth
same,optimal dose (cellular ATP levels),SK-N-SH cells,10 µM
same,hypoglycemic effect (blood glucose),Wild-type mice (C57BL/6),did not exhibit a hypoglycemic effect
same,motor ability (rotarod),[2]; 0.1 mg/Kg daily,improved the motor ability
same,tyrosine hydroxylase protein levels / effect on dopaminergic neurons,[3],protective effect on dopaminergic neurons
same,inhibition of Pgk1 enzymatic activity,"Pgk1 [7]; high concentration, 100 µM",can inhibit Pgk1 enzymatic activity
same,optimal concentration for activating Pgk1,Pgk1 [7],1 µM
liraglutide,hypoglycemic effect (blood glucose),db/db mice [5]; 0.6 mg/Kg intraperitoneally,optimal hypoglycemic effect
